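Step 1: Grow cells in 96-well plates. Step 2: Expose to compound for 48 hours at 5 concentrations. Step 3: Interpolate endpoints linearly; if unreached, use highest concentration. GI50: concentration for 50% inhibition of growth.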 The source made the active and inactive calls. Rule as the data show it: active = GI50 up to about 1.1 µM and inactive = higher.

Among the test systems are EKVX; PC-3; SW-620; TK-10; CCRF-CEM; HCC 2998; OVCAR-8; HOP-92; OVCAR-3; SNB-19; RPMI-8226; T47D; SK-MEL-2; ACHN; A549; UACC-62; UACC-257; M14; IGROV-1; SR.
Common to all, as to assay: growth of human tumour cells (NCI), 48 h

For `O=C(Nc1cccc2nsnc12)c1cc2c(cc1Cl)Sc1nccn1S2(=O)=O`, the GI50 in the assay on EKVX is 5.22 µM (inactive); with PC-3, 1.9 µM (inactive); with SW-620, 10.5 µM (inactive); in the assay with TK-10, 6.01 µM (inactive); in the assay with CCRF-CEM, 3.28 µM (inactive); with HCC 2998, 3.38 µM (inactive). The GI50 in the assay on OVCAR-8 was 2.73 µM (inactive); in the assay on HOP-92 it was 4.4 µM (inactive); in the assay on OVCAR-3, 1.68 µM (inactive); with SNB-19, 12.1 µM (inactive); with RPMI-8226, 2.26 µM (inactive); in the assay on T47D, 2.24 µM (inactive). The GI50 with SK-MEL-2 was 11.2 µM (inactive); in the assay on ACHN it was 12.7 µM (inactive); in the assay on A549 it was 17.3 µM (inactive); in the assay with UACC-62, 5.33 µM (inactive); in the assay on UACC-257, 1.81 µM (inactive); in the assay with M14, 18.9 µM (inactive). Further, the GI50 was 11.5 µM (inactive) in the assay on IGROV-1 and 2.73 µM (inactive) in the assay on SR.
Take `Cc1nn(C(=O)c2ccc(Cl)cc2)c2c1C(c1ccccc1)SC(=N)N2` (stereo not given): the GI50 with EKVX, in the assay with PC-3, in the assay on SW-620, in the assay with TK-10, in the assay on CCRF-CEM and with HCC 2998 was > 10 µM (inactive) each time. Further, the GI50 in the assay on OVCAR-8, in the assay on HOP-92, with OVCAR-3, in the assay on SNB-19, with RPMI-8226 and with T47D was > 10 µM (inactive) in each case. Moreover, the GI50 in the assay with SK-MEL-2, in the assay on ACHN, in the assay on A549, in the assay with UACC-62, with UACC-257 and in the assay with M14 was > 10 µM (inactive) throughout. The GI50 with IGROV-1 and in the assay on SR was > 10 µM (inactive) each time.
As for `c1ccc2c(c1)ccn1ccc3c4ccccc4nc-3c21`, the GI50 was 0.214 µM (active) in the assay with EKVX; 0.384 µM (active) with PC-3; 0.202 µM (active) with SW-620; 1.16 µM (inactive) in the assay on TK-10; 0.26 µM (active) with CCRF-CEM; 0.191 µM (active) with HCC 2998. For the same molecule, the GI50 in the assay on OVCAR-8 was 0.182 µM (active); with HOP-92, 1.41 µM (inactive); in the assay on OVCAR-3 it was 0.918 µM (active); with SNB-19, 0.776 µM (active); with RPMI-8226 it was 0.195 µM (active); in the assay with T47D, 0.71 µM (active). Also, the GI50 was 1.17 µM (inactive) in the assay on SK-MEL-2; 0.228 µM (active) with ACHN; 0.32 µM (active) in the assay with A549; 1.16 µM (inactive) with UACC-62; 1.06 µM (active) in the assay with UACC-257; 0.38 µM (active) in the assay on M14. Besides, the results for the GI50 in the assay on IGROV-1 and in the assay on SR were 0.394 µM (active) and < 0.01 µM (active), respectively.
Regarding `CC(=O)Nc1ccccc1SCCSSCCSc1ccccc1NC(C)=O`, the GI50 with EKVX is 43.3 µM (inactive); in the assay with PC-3 it was 23.1 µM (inactive); with SW-620 it was 39.3 µM (inactive); in the assay with TK-10, 34.1 µM (inactive); in the assay with CCRF-CEM, 23.6 µM (inactive); with HCC 2998, 22.3 µM (inactive). Besides, the GI50 was 38.9 µM (inactive) in the assay on OVCAR-8; 17.5 µM (inactive) in the assay on HOP-92; 28.8 µM (inactive) with OVCAR-3; 17.7 µM (inactive) with SNB-19; 17.9 µM (inactive) in the assay on RPMI-8226; 25.6 µM (inactive) with T47D. Besides, the GI50 with SK-MEL-2 was 27.9 µM (inactive); in the assay on ACHN, 20.6 µM (inactive); in the assay with A549, 25.7 µM (inactive); in the assay with UACC-62, 32 µM (inactive); with UACC-257, 20.7 µM (inactive); with M14 it was 31.5 µM (inactive). Moreover, the values for the GI50 in the assay on IGROV-1 and in the assay with SR were 20.3 µM (inactive) and 34.4 µM (inactive), respectively.
`CC(=O)N1CCc2c([nH]c3ccc(Br)cc23)C1c1ccccc1` (stereo not given): the GI50 with EKVX is > 10 µM (inactive); with PC-3, 1.12 µM (active); in the assay on SW-620, 2.62 µM (inactive); with TK-10, > 10 µM (inactive); with CCRF-CEM it was 1.47 µM (inactive); in the assay on HCC 2998 it was 9.95 µM (inactive). Also, the GI50 with OVCAR-8 was > 5.07 µM (inactive); in the assay with HOP-92, > 10 µM (inactive); in the assay with OVCAR-3 it was > 10 µM (inactive); with SNB-19, > 10 µM (inactive); in the assay with RPMI-8226, 2.29 µM (inactive); with T47D, > 10 µM (inactive). The GI50 with SK-MEL-2 was > 10 µM (inactive); with ACHN, > 7.36 µM (inactive); with A549 it was 0.912 µM (active); in the assay with UACC-62, > 7.13 µM (inactive); in the assay on UACC-257, > 10 µM (inactive); with M14, > 10 µM (inactive). Further, the GI50 with IGROV-1 is > 7.33 µM (inactive); in the assay with SR it was 0.733 µM (active).
Take `O=C1NC(=O)C(F)(n2cc(F)c(=O)[nH]c2=O)C(O)N1` (stereo not given): the GI50 in the assay with EKVX, with PC-3, with SW-620, in the assay with TK-10, in the assay with CCRF-CEM and in the assay with HCC 2998 was > 10 µM (inactive) in each case. Besides, the GI50 in the assay with OVCAR-8, in the assay on HOP-92, in the assay on OVCAR-3, with SNB-19, in the assay with RPMI-8226 and in the assay on T47D was > 10 µM (inactive) throughout. Also, the GI50 with SK-MEL-2, with ACHN, with A549, in the assay with UACC-62, in the assay on UACC-257 and in the assay with M14 was > 10 µM (inactive) throughout. The GI50 with IGROV-1 and in the assay on SR was > 10 µM (inactive) each time.
For `C=CCN(c1cc(OCc2ccccc2)c2[nH]cc(C)c2c1)S(C)(=O)=O`, the GI50 with EKVX is 24.2 µM (inactive); in the assay with PC-3, 49.4 µM (inactive); in the assay on SW-620, > 100 µM (inactive); with TK-10, 92.3 µM (inactive); with CCRF-CEM, > 100 µM (inactive); in the assay on HCC 2998, > 100 µM (inactive). Besides, the GI50 is 61.9 µM (inactive) in the assay with OVCAR-8; 44 µM (inactive) in the assay on HOP-92; 25 µM (inactive) in the assay with OVCAR-3; 57.9 µM (inactive) in the assay with SNB-19; 39.4 µM (inactive) in the assay with RPMI-8226; 18.8 µM (inactive) in the assay on T47D. The GI50 in the assay with SK-MEL-2 is 41.7 µM (inactive); in the assay with ACHN, 37.6 µM (inactive); in the assay with A549 it was 34.7 µM (inactive); in the assay with UACC-62, 22.8 µM (inactive); with UACC-257, 52.7 µM (inactive); in the assay on M14, > 100 µM (inactive). Also, the values for the GI50 in the assay with IGROV-1 and in the assay on SR were 88.7 µM (inactive) and > 100 µM (inactive), respectively.
Consider `CC(C)(C)OC(=O)NCCCNC1(c2cc3ccccc3s2)CCCCC1`, for which the GI50 in the assay on EKVX was 14 µM (inactive); in the assay with PC-3, 18.8 µM (inactive); with SW-620, 15.5 µM (inactive); in the assay with TK-10, 16.6 µM (inactive); in the assay with CCRF-CEM it was 8.22 µM (inactive); in the assay with HCC 2998 it was 3.56 µM (inactive). The GI50 is 17.2 µM (inactive) in the assay on OVCAR-8; 10 µM (inactive) with HOP-92; 13.8 µM (inactive) with OVCAR-3; 13.6 µM (inactive) with SNB-19; 3.84 µM (inactive) with RPMI-8226; 16.7 µM (inactive) in the assay on T47D. Also, the GI50 with SK-MEL-2 was 17.5 µM (inactive); in the assay with ACHN, 19.2 µM (inactive); with A549, 12.6 µM (inactive); in the assay with UACC-62 it was 17.4 µM (inactive); in the assay on UACC-257, 15.8 µM (inactive); in the assay on M14, 12 µM (inactive). For the same molecule, the values for the GI50 with IGROV-1 and in the assay on SR were 16.7 µM (inactive) and 10.2 µM (inactive), respectively.
As to `Cc1ccc(C(=O)OC(C)C)cc1/N=N/N(C)C`, the GI50 was > 100 µM (inactive) in the assay on EKVX; 99.1 µM (inactive) in the assay on PC-3; > 100 µM (inactive) in the assay with SW-620; > 100 µM (inactive) in the assay on TK-10; 75.2 µM (inactive) in the assay with CCRF-CEM; > 100 µM (inactive) with HCC 2998. Further, the GI50 in the assay on OVCAR-8 is > 100 µM (inactive); in the assay on HOP-92, > 93.3 µM (inactive); in the assay with OVCAR-3, 46 µM (inactive); in the assay on SNB-19, > 69.8 µM (inactive); in the assay with RPMI-8226, > 100 µM (inactive); in the assay with T47D, 44.5 µM (inactive). The GI50 in the assay with SK-MEL-2 was > 100 µM (inactive); in the assay on ACHN, > 88.5 µM (inactive); in the assay with A549, > 100 µM (inactive); with UACC-62, > 96.2 µM (inactive); with UACC-257 it was 27.1 µM (inactive); with M14 it was > 100 µM (inactive). The GI50 in the assay on IGROV-1 and in the assay with SR was > 100 µM (inactive) in each case.
Turning to `CC(C)CC(NC(O)[BH2-][N+](C)(C)C)C(=O)NC(Cc1ccccc1)C(=O)N[C@H]1c2ccsc2/C(=N/O)[C@H]1O` (stereo not given in full), the GI50 in the assay on EKVX, with PC-3, with SW-620, in the assay on TK-10, in the assay with CCRF-CEM and in the assay with HCC 2998 was > 100 µM (inactive) each time. The GI50 with OVCAR-8, in the assay with HOP-92, in the assay with OVCAR-3, in the assay on SNB-19, with RPMI-8226 and with T47D was > 100 µM (inactive) each time. The GI50 in the assay on SK-MEL-2, in the assay with ACHN, with A549, in the assay with UACC-62, with UACC-257 and in the assay on M14 was > 100 µM (inactive) in each case. Moreover, the GI50 in the assay on IGROV-1 and with SR was > 100 µM (inactive) in each case.
